Patent US7781644B2, “Arabidosis AtLEJ1 gene involved in inhibiting biosynthesis of jasmonic acid and ethylene and method for producing male-sterile plant using the same” (Korea University Industry and Academy Cooperation Foundation, priority 2006, dated 2010)

Columns and labels:
[1] = tested on: male-sterile AtLEJ1-overexpressed plant; assay: Restoration of male-sterile AtLEJ1-overexpressed plant to fertile phenotype by hormone treatment of flower bud cluster; format: in vivo, Arabidopsis
Procedure: First, a flower bud cluster of the AtLEJ1-overexpressed plant was treated with 500 μM jasmonic acid. For a negative control, non-treatment or water alone, was provided.
(§1) The flowers obtained day 2 after treatment with jasmonic acid were embedded in paraffin (Paraplast) and then stained with phloroglucinol for microscopic observation.

[2] = tested on: endothecium cells of stamens of the AtLEJ1-overexpressed plant; assay: Phloroglucinol staining of paraffin sections for lignification of endothecium cells of stamens after hormone treatment; format: in vivo, Arabidopsis
From the text: In order to examine the developmental process of anthers at the cell level, flowers of the wild-type and the AtLEJ1-overexpressed plant were dipped in a fixing solution, dehydrated with a series of ethanol solutions, and embedded in paraffin (Paraplast), followed by microtome section at 8 μm. The sections were stained with 2% phloroglucinol to visualize the lignification of the endothecium cells, known to play an important role in anther dehiscence, and were washed with 9N HCl.
as §1

**Q.** `NC1(C(=O)O)CC1` [ACC, 1-aminocyclopropane-1-carboxylic acid] was tested. Which “restoration to a fertile phenotype” value ([1]; treatment with 50 mM ACC (FIG. 12)) did it give?
**A.** restored to a fertile phenotype

**Q.** What about the “restoration to a fertile phenotype” value ([1]; treatment with 500 mM ACC (FIG. 12)) of the same compound?
**A.** restored to a fertile phenotype

**Q.** And the “lignification of endothecium cells of stamens” value ([2]; ACC-treated plant, 50 mM or 500 mM (FIG. 13))?
**A.** Lignification was also found

**Q.** With `CC/C=C\C[C@H]1C(=O)CC[C@@H]1CC(=O)O` [jasmonic acid] as the compound, how does the “restoration to a fertile phenotype” value ([1]; 500 μM jasmonic acid on flower bud cluster, one week after treatment, control remained sterile (FIG. 10)) read?
**A.** at least partly, restored to a fertile phenotype

**Q.** And the “anther dehiscence (microscopic observation of treated flowers)” value ([1]; 500 μM jasmonic acid, day 2 after treatment)?
**A.** observed to enter anther dehiscence

**Q.** What about the “lignification of endothecium cells of stamens (phloroglucinol staining)” value ([2]; 500 μM jasmonic acid, flowers obtained day 2 after treatment (FIG. 11)) of the same compound?
**A.** lignified
